We go through 25 compounds from ChEMBL document CHEMBL5370539, “Oxazole-4-carboxamide/butylated hydroxytoluene hybrids with GSK-3β inhibitory and neuroprotective activities against Alzheimer's disease” (Eur J Med Chem, 2023).

Experiment [1] deals with Glycogen synthase kinase-3 beta (Homo sapiens, UniProt P49841). Nature of the experiment: Inhibition of recombinant human GSK-3beta using YRRAAVPPSPSLSRHSSPHQ(pS)EDEE as substrate preincubated for 15 mins followed by substrate addition and measured after 60 mins by Kinase-Glo luminescent kinase assay. A general note: Kinase-Glo measures the ATP left after a reaction by luminescence.
Glycogen synthase kinase-3 beta, sequence (P49841 whole entry): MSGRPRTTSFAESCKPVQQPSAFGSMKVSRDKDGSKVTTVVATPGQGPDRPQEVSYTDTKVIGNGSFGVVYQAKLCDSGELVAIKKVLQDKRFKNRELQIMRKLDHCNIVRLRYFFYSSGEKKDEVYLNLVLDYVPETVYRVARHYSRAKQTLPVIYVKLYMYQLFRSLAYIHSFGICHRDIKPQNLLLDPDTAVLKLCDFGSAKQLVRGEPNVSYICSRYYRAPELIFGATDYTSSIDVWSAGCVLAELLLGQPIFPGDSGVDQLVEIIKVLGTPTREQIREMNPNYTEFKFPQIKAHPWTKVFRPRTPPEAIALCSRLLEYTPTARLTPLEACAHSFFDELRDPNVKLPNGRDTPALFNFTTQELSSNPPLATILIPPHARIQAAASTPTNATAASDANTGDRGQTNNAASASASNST

In experiment [2] the test system is PC-12. Nature of the experiment: Neuroprotective activity against H2O2-induced cytotoxicity in rat PC12 cells assessed as increase in cell viability at 10 uM preincubated for 12 hrs followed by replacement with fresh media and H2O2 stimulation for 12 hrs by MTT assay. The class given is functional, cell-based. On the technique in general: Tetrazolium dyes change colour on reduction, which living cells bring about.

Activity calls are given as the source filed them. The calls are words filed in the database; no cut-off is given here.

In general, IC50 refers to the concentration needed to halve the response being measured.

Turning to `COc1ccc(-c2ocnc2C(=O)NCCCn2cc(CNC(=O)CCc3cc(C(C)(C)C)c(O)c(C(C)(C)C)c3)nn2)cc1I`, the IC50 in experiment [1] stood at 0.81 nM. On the same count and under the same terms, under `COc1ccc(-c2ocnc2C(=O)NCCCNC(=O)/C=C/c2cc(C(C)(C)C)c(O)c(C(C)(C)C)c2)cc1Cl` stands 0.41 nM. Same read-out and setting: under `COc1ccc(-c2ocnc2C(=O)NCCCn2cc(CNC(=O)c3cc(C(C)(C)C)c(O)c(C(C)(C)C)c3)nn2)cc1Cl` stands greater than 1 nM. In the case of `COc1c(F)cc(-c2ocnc2C(=O)NCCCNC(=O)CCc2cc(C(C)(C)C)c(O)c(C(C)(C)C)c2)cc1F`, the IC50 in experiment [1] was greater than 1 nM. With `COc1ccc(-c2ocnc2C(=O)NCCCNC(=O)CCc2cc(C(C)(C)C)c(O)c(C(C)(C)C)c2)cc1Cl`, the IC50 in experiment [1] is greater than 1 nM. Still for that read-out and setting: under `COc1ccc(-c2ocnc2C(=O)NCCCn2cc(CNC(=O)c3cc(C(C)(C)C)c(O)c(C(C)(C)C)c3)nn2)cc1I` stands 0.31 nM. On to `COc1ccc(-c2ocnc2C(=O)NCCCCNC(=O)c2cc(C(C)(C)C)c(O)c(C(C)(C)C)c2)cc1Cl`, for which, in experiment [1], the IC50 was determined as 0.81 nM. Further, in experiment [2], the result was Active.

`COc1ccc(-c2ocnc2C(=O)NCCCNC(=O)/C=C/c2cc(C(C)(C)C)c(O)c(C(C)(C)C)c2)cc1I`: the IC50 in experiment [1] is greater than 1 nM. Still for that read-out and setting: under `COc1ccc(-c2ocnc2C(=O)NCCCn2cc(CNC(=O)CCc3cc(C(C)(C)C)c(O)c(C(C)(C)C)c3)nn2)cc1Cl` stands 0.27 nM. As for `COC(=O)[C@@]12OC[C@]34[C@H]([C@@H](O)[C@@H]1O)[C@@]1(C)CC(=O)C(O)=C(C)[C@@H]1C[C@H]3OC(=O)[C@H](OC(=O)C=C(C)C)[C@@H]24`, in experiment [2], the result was inactive. Consider `COc1ccc(-c2ocnc2C(=O)NCCCn2cc(CNC(=O)/C=C/c3cc(C(C)(C)C)c(O)c(C(C)(C)C)c3)nn2)cc1Cl`, for which the IC50 in experiment [1] is 0.76 nM. Turning to `COc1ccc(-c2ocnc2C(=O)NCCCCNC(=O)c2cc(C(C)(C)C)c(O)c(C(C)(C)C)c2)cc1F`, in experiment [1], the IC50 was found to be 0.62 nM. The result in experiment [2] was Active. In the same order, the values of `COc1ccc(-c2ocnc2C(=O)NCCCCNC(=O)CCc2cc(C(C)(C)C)c(O)c(C(C)(C)C)c2)cc1F` are 0.78 nM and “Active”. With `COc1ccc(-c2ocnc2C(=O)NCCCNC(=O)c2cc(C(C)(C)C)c(O)c(C(C)(C)C)c2)cc1I`, in experiment [1], the IC50 stood at 0.48 nM. The same measure, in the same setting: under `COc1ccc(-c2ocnc2C(=O)NCCCc2ccc(NC(=O)CCc3cc(C(C)(C)C)c(O)c(C(C)(C)C)c3)cc2)cc1Cl` stands greater than 1 nM; under `COc1ccc(-c2ocnc2C(=O)NCCCNC(=O)c2cc(C(C)(C)C)c(O)c(C(C)(C)C)c2)cc1Cl`, greater than 1 nM. The same measure, in the same setting: under `COc1ccc(-c2ocnc2C(=O)NCCCNC(=O)CCc2cc(C(C)(C)C)c(O)c(C(C)(C)C)c2)cc1I` stands greater than 1 nM.

With `COc1ccc(-c2ocnc2C(=O)NCCCNC(=O)c2cc(C(C)(C)C)c(O)c(C(C)(C)C)c2)cc1F`, the IC50 in experiment [1] was greater than 1 nM. The same measure, in the same setting: then `COc1ccc(-c2ocnc2C(=O)NCCCc2ccc(NC(=O)/C=C/c3cc(C(C)(C)C)c(O)c(C(C)(C)C)c3)cc2)cc1F`, with greater than 1 nM; and `COc1ccc(-c2ocnc2C(=O)NCCCn2cc(CNC(=O)/C=C/c3cc(C(C)(C)C)c(O)c(C(C)(C)C)c3)nn2)cc1I`, with 0.33 nM. On to `COc1ccc(-c2ocnc2C(=O)NCCCc2ccc(NC(=O)c3cc(C(C)(C)C)c(O)c(C(C)(C)C)c3)cc2)cc1Cl`, for which the IC50 in experiment [1] was 0.92 nM. Further, the outcome in experiment [2] was Active. In the case of `COc1c(F)cc(-c2ocnc2C(=O)NCCCc2ccc(NC(=O)/C=C/c3cc(C(C)(C)C)c(O)c(C(C)(C)C)c3)cc2)cc1F`, in experiment [1], the IC50 was 0.95 nM. Moreover, the outcome in experiment [2] was Active.

`COc1c(F)cc(-c2ocnc2C(=O)NCCCNC(=O)c2cc(C(C)(C)C)c(O)c(C(C)(C)C)c2)cc1F`: the IC50 in experiment [1] was 0.96 nM. As to `COc1ccc(-c2ocnc2C(=O)NCCCCNC(=O)CCc2cc(C(C)(C)C)c(O)c(C(C)(C)C)c2)cc1Cl`, the IC50 in experiment [1] stood at 0.84 nM. The result in experiment [2] was Active. Consider `COc1ccc(-c2ocnc2C(=O)NCCCNC(=O)CCc2cc(C(C)(C)C)c(O)c(C(C)(C)C)c2)cc1F`, for which, in experiment [1], the IC50 is greater than 1 nM.
